In US5776859A, “Sodium channel active novel compounds and related processes and bioassay techniques” (priority 1995, dated 1998):
Where two headings read alike, the source gives them in different places.

Assays:
[1] = tested on: animal; settings: in vivo; cited from earlier work
[2] = tested on: sodium channel; test: Temperature-dependent circular dichroism at 222 nM (helix-coil transition); type: biochemical, beef (bovine brain); settings: 222 nm wavelength; for % Loss of Helix (35° to 40° C.) / % Loss of Helix (30° to 35° C.): fresh AChE; for % Loss of Helix (35° to 40° C.): control 4.7 (pilocarpine), 4.6 (lidocaine); for % Loss of Helix (30° to 35° C.): control 21.8 (pilocarpine), 12.1 (lidocaine); for effect on alpha helix from 35° C. to 40° C. / effect on helical transition normally observed between 30°-35° C.: beef brain nerve cell protein preparation; for effect on helical transition normally observed between 30°-35° C.: 15° C. to 60° C.
Excerpt: As disclosed in PCT/US93/05792, published Jan. 6, 1994, one can identify compounds with potential analgesic effect by using circular dichroism to bioassay the interaction of molecules with ion channels, including sodium channels. Likewise, this bioassay technique is applicable to the thiophene compounds of the present invention.
To perform this method, solubilized nerve cell membrane proteins and acetylcholinesterase are purified using ion exchange and size exclusion chromatography. Then, one forms a mixture of a nerve cell protein and a compound capable of blocking or preventing the normal function of preferably the sodium channel in an excitable cell, and subjects that mixture to circular dichroism at a wave length of […] wave length. The transition of molar ellipticity is measured while varying the temperature of the mixture between 25°-50° C. The transition of molar ellipticity of the mixture is compared with the transition of molar ellipticity of a control nerve cell protein without the compound capable of blocking or preventing the normal function of the sodium channel in an excitable cell. The alpha helix content, as measured at […], is used to monitor the effect of temperature change on the ion channel's conformational change.
However, when a sodium channel active molecule is added to the membrane preparation, the temperature-dependent helix transition observed using circular dichroism is altered. […] These compounds, therefore, seem to stabilize the helix conformation of the sodium channel and to prevent the temperature-dependent uncoiling of alpha helix between 30° C.-35° C.

[3] = cardiac patients, routine therapeutic administration of lidocaine; cited from earlier work
[4] = tested on: rats; settings: cited from earlier work
[5] = tested on: mice; settings: cited from earlier work
[6] = tested on: Fischer rats; settings: cited from earlier work
[7] = tested on: Salmonella strains TA98, TA100, TA1535 and TA97; settings: cited from earlier work
[8] = tested on: B6C3FI mice; settings: cited from earlier work
[9] = surviving female mice, relative to controls

## Cc1cccc(C)c1N [2,6-xylidine]
[1]
  carcinogenicity: established animal and probable human carcinogen

## CCN(CC)CC(=O)Nc1c(C)cccc1C [Lidocaine]
[2]
  % Loss of Helix (35° to 40° C.): 13.6%
  % Loss of Helix (30° to 35° C.): 1.8%
  effect on alpha helix from 35° C. to 40° C.: the alpha helix uncoils to equal the helix in the control sample
  effect on helical transition normally observed between 30°-35° C.: prevented the helical transition normally observed between 30°-35 °C
[3]
  2,6-xylidine in human serum hemoglobin adduct: high levels of 2,6-xylidine

## CC[C@@H]1C(=O)OC[C@@H]1Cc1cncn1C [Pilocarpine]
[2]
  % Loss of Helix (35° to 40° C.): 17.5%
  % Loss of Helix (30° to 35° C.): 7.1%
  effect on alpha helix from 35° C. to 40° C.: the alpha helix uncoils to equal the helix in the control sample
  effect on helical transition normally observed between 30°-35° C.: prevented the helical transition normally observed between 30°-35 °C

## Cc1ccccc1N.Cl [ortho-toluidine hydrochloride]
[4]
  carcinogenicity: carcinogenic in rats and mice
[5]
  carcinogenicity: carcinogenic in rats and mice

## c1ccsc1 [thiophene]
[6]; all dose groups of both sexes surviving until study termination
  absolute lung weight and lung to brain weight ratio: decrease in the absolute lung weight and in the lung to brain weight ratio
[6]; male rats, 2000 and 4000 ppm, first week
  mortality: mortality also occurred in the 2000 and 4000 ppm male exposure groups
[6]; rats of both sexes, relative to control
  group mean body weight: dose-related depression in group mean body weight relative to control
[6]; rats, 4000 ppm
  clinical signs of toxicity: rough haircoat, ocular discharge, nasal discharge, dyspnea, and staggering gait
  microscopic examination, lung: chronic active inflammation of the lung
[6]; rats, 8000 ppm, one exposure
  mortality: All rats exposed to 8000 ppm died following one exposure
[6]; rats, all exposure groups, severity increasing with dose
  microscopic examination, liver: necrotizing inflammation of the liver in all exposure groups with severity increasing with dose
[6]; summary of rat and mice studies, extremely high inhalation doses
  toxicity to liver and lung: shows toxicity to liver and lung
[7]
  mutagenicity: does not function as a mutagen in this assay
[8]; female mice, 1000 ppm and 500 ppm
  survival: survived the study
[8]; female mice, 2000 ppm
  female mice died as a result of exposures: 2/10
[8]; female mice, 8000 ppm and 4000 ppm
  mortality: Total mortality
[8]; male mice, all exposure levels, single exposure
  survival / mortality: died or were terminated in moribund condition following a single exposure
[8]; mice that died early (within several hours after first exposure)
  microscopic pathology, hepatocytes: centrilobular degeneration of hepatocytes
[8]; mice
  microscopic pathology, cause of mortality: mortality was attributed to liver toxicity
  other exposure-related microscopic lesions: No other exposure-related microscopic lesions were found
[8]; mice, more severe in mice that survived the study
  microscopic pathology, nose and nasal cavity: Necrotizing inflammation of the nose and nasal cavity
[8]; [9]
  liver absolute and relative organ weights (liver-to-body and liver-to-brain weight ratios): increased relative to the controls
  thymus organ weight parameters: reduced
[8]; surviving female mice
  mean body weights or mean lung weights: did not affect mean body weights or mean lung weights
[8]; surviving mice, 500 ppm and 1000 ppm
  signs of toxicity: hypoactivity and abnormal posture
[8]; surviving mice, 2000 ppm
  signs of toxicity: dyspnea
[8]; surviving mice, all exposure levels
  microscopic pathology, hepatocytes: centrilobular necrosis of hepatocytes
